Source: paper PMC8301423, “The Effects of Temperature and Pressure on Protein-Ligand Binding in the Presence of Mars-Relevant Salts” (Biology, 2021)

Target: T1, bovine serum albumin (BSA) (Bos taurus, UniProt P02769)
T1 construct: BSA, molecular weight of 66 kDa, 583 residues; purchased Sigma Aldrich Chemicals (Taufkirchen, Germany)
Experiment: Steady-state fluorescence titration of ANS with BSA at ambient pressure (binding isotherms)
Details: for Kd: 1 bar, 10 mM Tris-HCl pH 7.4
Description: The extent of complex formation between ANS and BSA was followed by means of steady-state fluorescence spectroscopy using a K2 fluorometer from ISS, Inc. (Champaign, IL, USA). The binding isotherms were obtained by recording ANS emission spectra by exciting the solutions at 350 nm and recording the emission intensities in the range 400–550 nm. The width slits of the excitation and emission monochromators were both set to 8 nm. Briefly, a series of solutions with a fixed concentration of ANS at ~5 µM were prepared, and the concentration of BSA was varied between 0 and ~40 µM. Then estimation of the binding constants (Kb) was performed by using a plot of ΔF = F − F0 (where F is the fluorescence intensity of ANS at the maximum in the presence of BSA, and F0 is the intensity of ANS in the absence of BSA) as a function of total BSA concentration and fitting the experimental data according to an equivalent and independent binding sites model or to two classes of non-equivalent and independent binding-site models, as described in detail in Reference.
Once the stoichiometries of the complex in the presence of the salts and at the three different temperatures are known, it is possible to estimate the binding constants, Kb, performing titration experiments by means of steady-state fluorescence spectroscopy. In these experiments, a solution of ANS was titrated with a BSA solution. The ANS is characterized by a very low quantum yield when it is free in solution [21]. Instead, when the aromatic ligand is bound to the protein’s hydrophobic pockets, a strong increase of the fluorescence intensity is observed. Thus, the extent of binding can be readily determined by following the fluorescence increase of ANS. The subsequent data analysis was performed according to the stoichiometries inferred by the Job’s plot experiments.

T1 sequence (P02769 25-607): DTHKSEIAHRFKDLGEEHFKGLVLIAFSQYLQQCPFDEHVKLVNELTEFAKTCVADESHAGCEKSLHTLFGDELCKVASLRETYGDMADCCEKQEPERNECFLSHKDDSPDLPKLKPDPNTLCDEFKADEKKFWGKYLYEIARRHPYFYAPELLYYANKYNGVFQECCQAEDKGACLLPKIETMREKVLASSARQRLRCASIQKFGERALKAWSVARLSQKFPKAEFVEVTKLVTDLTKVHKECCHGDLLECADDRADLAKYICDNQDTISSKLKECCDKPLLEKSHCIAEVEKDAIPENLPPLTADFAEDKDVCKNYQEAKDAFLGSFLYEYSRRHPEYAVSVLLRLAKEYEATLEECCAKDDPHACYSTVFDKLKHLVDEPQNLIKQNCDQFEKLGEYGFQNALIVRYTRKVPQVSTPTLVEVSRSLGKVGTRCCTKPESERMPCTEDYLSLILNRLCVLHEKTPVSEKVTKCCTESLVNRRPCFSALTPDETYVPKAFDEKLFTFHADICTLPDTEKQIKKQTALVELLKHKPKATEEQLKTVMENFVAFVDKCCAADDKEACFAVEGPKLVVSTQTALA

## O=S(=O)(O)c1cccc2cccc(Nc3ccccc3)c12 [ANS, 8-anilinonaphthalene-1-sulfonic acid]
250 mM MgCl2, 1 bar
  Decrease of Kb on decreasing the temperature from 25 to 15 °C: ~ 90%
Binding constant Kb1, 250 mM Mg(ClO4)2, 5 °C
  Kd: 5260 nM
Binding constant Kb1, 250 mM Mg(ClO4)2, 15 °C
  Kd: 6670 nM
Binding constant Kb1, 250 mM Mg(ClO4)2, 25 °C
  Kd: 1690 nM
Binding constant Kb1, 250 mM MgCl2, 5 °C
  Kd: 1000 ± 100 nM
Binding constant Kb1, 250 mM MgCl2, 15 °C
  Kd: 2780 nM
Binding constant Kb1, 250 mM MgCl2, 25 °C
  Kd: 204 nM
Binding constant Kb1, 250 mM MgSO4, 5 °C
  Kd: 1610 nM
Binding constant Kb1, 250 mM MgSO4, 15 °C
  Kd: 2560 nM
Binding constant Kb1, 250 mM MgSO4, 25 °C
  Kd: 345 nM
Binding constant Kb2, 250 mM Mg(ClO4)2, 5 °C
  Kd: 5260 nM
Binding constant Kb2, 250 mM Mg(ClO4)2, 15 °C
  Kd: 7690 nM
Binding constant Kb2, 250 mM Mg(ClO4)2, 25 °C
  Kd: 833 nM
